Test results from paper PMC8049054, “Systematic Assessment of Fragment Identification for Multitarget Drug Design” (Chemmedchem, 2021).

Molecular target: T1, soluble epoxide hydrolase (sEH) (Homo sapiens, UniProt P34913)
T1 construct: made in house; host or cells: E. coli BL21 (DE3)
T1 sequence (P34913 1-555): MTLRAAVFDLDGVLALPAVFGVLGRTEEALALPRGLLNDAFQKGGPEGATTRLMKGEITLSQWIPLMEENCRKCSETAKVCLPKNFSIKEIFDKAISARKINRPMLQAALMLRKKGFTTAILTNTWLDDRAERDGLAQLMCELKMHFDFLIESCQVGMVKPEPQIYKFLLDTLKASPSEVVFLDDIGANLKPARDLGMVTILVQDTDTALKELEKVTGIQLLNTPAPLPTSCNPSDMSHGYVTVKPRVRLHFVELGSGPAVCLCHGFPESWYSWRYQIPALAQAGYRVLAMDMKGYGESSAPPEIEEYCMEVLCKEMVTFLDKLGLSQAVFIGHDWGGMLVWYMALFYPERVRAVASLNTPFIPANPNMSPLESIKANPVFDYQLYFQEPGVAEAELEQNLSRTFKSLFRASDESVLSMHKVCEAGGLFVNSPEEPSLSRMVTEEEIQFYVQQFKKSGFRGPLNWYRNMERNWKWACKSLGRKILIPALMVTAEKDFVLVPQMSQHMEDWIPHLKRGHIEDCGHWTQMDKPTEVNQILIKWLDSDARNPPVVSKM
Experiment: sEH-H activity assay (fluorogenic substrate PHOME)
Format: biochemical
Details: for sEH LE: ligand efficiency calculated from IC50; for IC50: mean±standard deviation of three independent experiments
Method: For hit validation, we employed secondary assays with orthogonal readouts to confirm fragment activities. Biochemical activity assays were chosen for the enzymes sEH, LTA4H, and 5‐LOX. […] RXRα and FXR modulation was assessed in cell‐based hybrid reporter gene assays. All ten compounds were tested at a single concentration of 500 μM in the sEH and LTA4H activity assays and with a concentration of 100 μM on 5‐LOX, RXRα, and FXR. Fragments showing an inhibition greater than 50 % (sEH‐H and LTA4H) or greater than 70 % (5‐LOX) as well as the hits determined in the DSF experiments were further characterized in full concentration‐response curves between 0.1 and 1000 μM. […] As alternative cell‐free assay we employed isothermal titration calorimetry (ITC) to determine binding affinity of the fragments towards the LBDs of both nuclear receptors. ITC was performed with a protein concentration of 50 μM and compound concentrations of 250 μM.
The 10 fragments showing dual activity in the DSF experiments were validated by functional assay screening with a fixed concentration of 500 µM in case of sEH-H and LTA4H, 100 µM in case of 5-LOX and 30 µM, 10 µM and 5 µM in case of FXR and […]
% (5-LOX) as well as the hits determined in the DSF experiments were further measured with concentrations between 1000 µM and 0.1 µM (sEH-H and LTA4H) and between 300 µM and 1 µM (5-LOX). The sEH and LTA4H activity assays were performed as triplicate and repeated 3 times. The 5-LOX activity assay was performed with one point per concentration and repeated 3 times Raw data was first analyzed in Microsoft Office Excel (2013), before IC50 curves were plotted and further analyzed using GraphPad Prism 7 and GraphPad Prism 8 for the shown graphs .
The eight approved drugs were measured in the orthogonal assay systems analogous to the fragments. The approved drugs were […]
For the sEH-H and LTA4H, they were measured as triplicate in concentrations between 1000 µM and 1 µM and each measurement was repeated three times. For the 5-LOX they were measured as single point measurement in three different experiments with concentrations between 300 µM and 1 µM. For […]
Raw data was processed according to the fragments.
The sEH-H activity assay was performed adapted from Hahn et al.5 and Lukin et al.6. In short 1 µl of compound dilution in DMSO or pure DMSO (for the positive and negative control) was placed in a black 96-well plate (Thermo Scientific™ Nunc™ F96 MicroWell™ Black Polystyrene Plate) and then 89 µl of protein-mix or buffer mix (without protein as negative control) were added and the mixture was incubated for 30 min at room temperature. 10 µl of 0.6 mM 3-phenyl-cyano(6-methoxy-2-naphthalenyl)methylester-2-oxiraneacetic acid (PHOME) were added to every well. The Plate was measured every minute for 45 min. Final concentration per well was 3 nM sEH-Fl, 0.001 % Triton X-100, 25 mM Bis-tris, 0.1 mg/ml BSA, pH = 7.0, 1.6% DMSO […]

Row | sEH LE | IC50 | SMILES
1 |  | 56.6 ± 5.4 µM | CCN(Cc1ccccc1)c1ccccc1 [Compound 7]
2 | 0.33 kcal/mol | 141 ± 34.1 µM | Clc1ccc2c(c1)Nc1ccccc1CC2 [Compound 8]
3 | 0.36 kcal/mol | 108 ± 11 µM | Oc1ccc(-c2ccc(F)cc2F)cc1 [Compound 9]
4 | 0.33 kcal/mol | 120 ± 22.4 µM | Fc1ccc(-c2c[nH]c3ccccc23)cc1 [Compound 10]

Second part, the compound before the results:

Row | SMILES | sEH LE | IC50
5 | Cc1cc(=O)n(-c2ccc(C)c(C)c2)[nH]1 [Compound 2] | 0.35 kcal/mol | 135 ± 9.1 µM
6 | CCCCOc1cc(C(=O)OC)ccc1N [Compound 3] | <0.3 kcal/mol | > 300 µM
7 | Oc1ccc(Cc2ccccc2)cc1 [Compound 4] |  | 151 ± 5.8 µM
8 | Cc1ccccc1C(=O)Nc1ccccc1 [Compound 6] | 0.31 kcal/mol | 226 ± 18.5 µM
